Measured values: US11572341B2, “Biguanide compound and use thereof” (ImmunoMet Therapeutics Inc., priority 2014, dated 2023)
Read-outs that look alike come from different tables or passages of the source.

Assays:
HCT116 cells = assay: Inhibitory effect against cancer cell proliferation (MTT); format: cell-based, human; conditions: HCT116, MTT, 48 hours, read-out: IC50 (uM) @ HCT116
Method: The formazane crystals thus formed were dissolved using dimethyl sulfoxide (DMSO) and absorbance of the solution was measured at 560 nm. After culturing for 48 hours, […] synthesized in Examples was indicated as cell viability (%) according to each treated concentration.

AMPKa [pT172] = assay: AMPKa activation [pT172] in MCF7 cell; format: cell-based

Compound | IC50 (HCT116 cells; Homo sapiens, HCT-116) | AMPKa activation [pT172] (Unit/ml) @ MCF7 cell (AMPKa [pT172]; 5 uM) | AMPKa activation [pT172] (Unit/ml) @ MCF7 cell (AMPKa [pT172]; 10 uM) | AMPKa activation [pT172] (Unit/ml) @ MCF7 cell (AMPKa [pT172]; 50 uM) | IC50 (HCT116 cells)
Cl.N=C(NC(=N)N1CCCC1)Nc1ccccc1C(F)(F)F [Example 75, N1-pyrrolidin-N5-(2-trifluoromethyl)phenyl Biguanide Hydrochloride] | – | 3.5 Unit/ml | 3.6 Unit/ml | 5.3 Unit/ml | > 100 µM
Cl.N=C(NC(=N)N1CCCC1)Nc1cc(C(F)(F)F)ccc1Cl [Example 76, N1-pyrrolidin-N5-(2-chloro-5-trifluoromethyl)phenyl Biguanide Hydrochloride] | 42.1 µM | 4.5 Unit/ml | 4.7 Unit/ml | 8.8 Unit/ml | –
CC1CCN(C(=N)NC(=N)Nc2ccc(OC(F)(F)F)c(F)c2)CC1.Cl [Example 59, N1-(4-methyl)piperidin-N5-(3-fluoro-4-trifluoromethoxy)phenyl Biguanide Hydrochloride] | 2.3 µM | 9.8 Unit/ml | 13.3 Unit/ml | cell death | –
Cl.N=C(N)NC(=N)N1CCCCCC1 [Example 139, N1-azepane Biguanide Hydrochloride] | > 100 µM | 5.7 Unit/ml | 5.8 Unit/ml | 10.9 Unit/ml | –
CC1CCN(C(=N)NC(=N)Nc2ccc(C(F)(F)F)cc2)CC1.Cl [Example 53, N1-(4-methyl)piperidin-N5-(4-trifluoromethyl)phenyl Biguanide Hydrochloride] | 6.1 µM | 9.2 Unit/ml | 13.9 Unit/ml | cell death | –
CC1CCN(C(=N)NC(=N)Nc2cccc(C(F)(F)F)c2)CC1.Cl [Example 50, N1-(4-methyl)piperidin-N5-(3-trifluoromethyl)phenyl Biguanide Hydrochloride] | 6.7 µM | 8.3 Unit/ml | 11.5 Unit/ml | cell death | –
Cl.N=C(N)NC(=N)Nc1ccc(C(F)(F)F)cc1 [Example 128, N1-(4-trifluoromethyl)phenyl Biguanide Hydrochloride] | > 100 µM | 7.6 Unit/ml | 7.1 Unit/ml | 8.8 Unit/ml | –
CN1CCN(C(=N)NC(=N)Nc2ccc(C(F)(F)F)cc2)CC1.Cl [Example 19, N1-(4-methyl)piperazin-N5-(4-trifluoromethyl)phenyl Biguanide Hydrochloride] | 41.7 µM | 3.3 Unit/ml | 4.3 Unit/ml | 15.3 Unit/ml | –
C=CCNC(=N)NC(=N)N.Cl [Example 111, N1-(2-prophene) Biguanide Hydrochloride] | 35.7 µM | 11.4 Unit/ml | 12.1 Unit/ml | 30.2 Unit/ml | –
CC/N=C(\NCCc1ccc2c(c1)OCO2)NC(=N)N.Cl [Example 101, N1-2-(benzo[d][1,3]dioxol-5-yl)ethyl-N2-ethyl Biguanide Hydrochloride] | > 100 µM | 4.1 Unit/ml | 3.6 Unit/ml | 5.9 Unit/ml | –
CC1CNC(NC(=N)N2CCCCC2)=NC1=O.Cl (stereo not shown) [Example 155, N-(5-methyl-4-oxo-1,4,5,6-tetrahydropyrimidin-2-yl)piperidin-1-carboximidamide Hydrochloride] | > 100 µM | 3.3 Unit/ml | 2.8 Unit/ml | 3.9 Unit/ml | –
CCCN(CCC)C(=N)NC(=N)N(CCC)CCC.Cl [Example 16, N1,N1-dipropyl-N5N-dipropyl Biguanide Hydrochloride] | 45.9 µM | 7.0 Unit/ml | 9.4 Unit/ml | 13.6 Unit/ml | –
COc1ccc(NC(=N)NC(=N)N)cc1.Cl [Example 120, N1-(4-methoxy)phenyl Biguanide Hydrochloride] | > 100 µM | – | – | 8.1 Unit/ml | –
CN1CCN(C(=N)NC(=N)Nc2cccc(Cl)c2)CC1.Cl [Example 29, N1-(4-methyl)piperazin-N5-(3-chloro)phenyl Biguanide Hydrochloride] | > 100 µM | 4.0 Unit/ml | 5.4 Unit/ml | 6.8 Unit/ml | –

The next lines start with results.

IC50 (HCT116 cells; Homo sapiens, HCT-116) | Compound | AMPKa activation [pT172] (Unit/ml) @ MCF7 cell (AMPKa [pT172]; 5 uM) | AMPKa activation [pT172] (Unit/ml) @ MCF7 cell (AMPKa [pT172]; 10 uM) | AMPKa activation [pT172] (Unit/ml) @ MCF7 cell (AMPKa [pT172]; 50 uM) | IC50 (HCT116 cells)
> 100 µM | C/N=C(\NCCc1ccc2c(c1)OCO2)NC(=N)N.Cl [Example 102, N1-2-(benzo[d][1,3]dioxol-5-yl)ethyl-N2-methyl Biguanide Hydrochloride] | 4.8 Unit/ml | 2.8 Unit/ml | 6.8 Unit/ml | –
> 100 µM | CN(C(=N)NC(=N)N)C1CCCCC1.Cl [Example 135, N1-methyl-N1-cyclohexyl Biguanide Hydrochloride] | – | – | 4.2 Unit/ml | –
> 100 µM | CN1CCN(C(=N)NC(=N)Nc2cc(F)cc(F)c2)CC1.Cl [Example 39, N1-(4-methyl)piperazin-N5-(3,5-difluoro)phenyl Biguanide Hydrochloride] | 6.2 Unit/ml | 7.1 Unit/ml | 8.2 Unit/ml | –
> 100 µM | Cl.N=C(NC(=N)Nc1cccc(C(F)(F)F)c1)Nc1cccnc1 [Example 41, N1-3-pyridin-N5-(3-trifluoromethyl)phenyl Biguanide Hydrochloride] | 8.3 Unit/ml | 10.2 Unit/ml | 14.4 Unit/ml | –
6.7 µM | CC1CCN(C(=N)NC(=N)Nc2ccc(F)c(C(F)(F)F)c2)CC1.Cl [Example 54, N1-(4-methyl)piperidin-N5-(3-trifluoromethyl-4-fluoro)phenyl Biguanide Hydrochloride] | 4.9 Unit/ml | 8.9 Unit/ml | cell death | –
> 100 µM | CN1CCN(C(=N)NC(=N)Nc2cc(F)c(F)c(F)c2)CC1.Cl [Example 40, N1-(4-methyl)piperazin-N5-(3,4,5-trifluoro)phenyl Biguanide Hydrochloride] | 7.0 Unit/ml | 5.1 Unit/ml | 7.2 Unit/ml | –
> 100 µM | CC(=O)Nc1ccc(NC(=N)NC(=N)N)cc1.Cl [Example 125, N1-4-(N-acetylamino)phenyl Biguanide Hydrochloride] | – | – | 5.0 Unit/ml | –
49.2 µM | Cl.N=C(N)N/C(=N/C1CCCCCC1)NCc1ccc(Cl)cc1 [Example 98, N1-(4-chloro)benzyl-N2-cycloheptyl Biguanide Hydrochloride] | 7.2 Unit/ml | 9.6 Unit/ml | 37.5 Unit/ml | –
> 100 µM | CCCCN(C)C(=N)NC(=N)N.Cl [Example 134, N1-methyl-N1-butyl Biguanide Hydrochloride] | – | – | 16.2 Unit/ml | –
> 100 µM | Cl.N=C(N)NC(=N)NCc1ccc2c(c1)OCO2 [Example 112, N1-(benzo[d][1,3]dioxol-5-yl)methyl Biguanide Hydrochloride] | – | – | 10.6 Unit/ml | –
> 100 µM | CC(C)(C)N(Cc1ccccc1)C(=N)NC(=N)Nc1ccc(Cl)cc1.Cl [Example 10, N1-(4-chloro)phenyl-N5-t-butyl-N5-benzyl Biguanide Hydrochloride] | – | – | 10.4 Unit/ml | –
> 100 µM | CC/N=C(\NCc1ccc2c(c1)OCO2)NC(=N)N.Cl [Example 100, N1-(benzo[d][1,3]dioxol-5-yl)methyl-N2-ethyl Biguanide Hydrochloride] | 7.1 Unit/ml | 9.0 Unit/ml | 8.0 Unit/ml | –
> 100 µM | Cl.N=C(N)NC(=N)NCCc1ccc(O)cc1 [Example 138, N1-(4-hydroxy)phenethyl Biguanide Hydrochloride] | 3.7 Unit/ml | 3.7 Unit/ml | 4.2 Unit/ml | –
> 100 µM | Cl.N=C(N)NC(=N)N(C1CCCCC1)C1CCCCC1 [Example 136, N1,N1-dicyclohexyl Biguanide Hydrochloride] | – | – | 5.9 Unit/ml | –
> 100 µM | CN1CCN(C(=N)NC(=N)NCc2ccccc2Cl)CC1.Cl [Example 32, N1-(4-methyl)piperazin-N5-(2-chloro)benzyl Biguanide Hydrochloride] | 5.5 Unit/ml | 5.2 Unit/ml | 5.3 Unit/ml | –
48.3 µM | CCCc1ccccc1NC(=N)NC(=N)N1CCCCC1.Cl [Example 74, N1-piperidin-N5-(2-propyl)phenyl Biguanide Hydrochloride] | 4.9 Unit/ml | 5.3 Unit/ml | 8.3 Unit/ml | –
